# Reference: ChEMBL document CHEMBL4270641, “ATP citrate lyase (ACLY) inhibitors: An anti-cancer strategy at the crossroads of glucose and lipid metabolism” (Eur J Med Chem, 2018)
# Assays:
# [1] = target: T1, ATP-citrate synthase (Rattus norvegicus) (UniProt P16638); experiment: (§1) Inhibition of rat liver ACLY; settings: concentration not given here
# T1 sequence (whole entry): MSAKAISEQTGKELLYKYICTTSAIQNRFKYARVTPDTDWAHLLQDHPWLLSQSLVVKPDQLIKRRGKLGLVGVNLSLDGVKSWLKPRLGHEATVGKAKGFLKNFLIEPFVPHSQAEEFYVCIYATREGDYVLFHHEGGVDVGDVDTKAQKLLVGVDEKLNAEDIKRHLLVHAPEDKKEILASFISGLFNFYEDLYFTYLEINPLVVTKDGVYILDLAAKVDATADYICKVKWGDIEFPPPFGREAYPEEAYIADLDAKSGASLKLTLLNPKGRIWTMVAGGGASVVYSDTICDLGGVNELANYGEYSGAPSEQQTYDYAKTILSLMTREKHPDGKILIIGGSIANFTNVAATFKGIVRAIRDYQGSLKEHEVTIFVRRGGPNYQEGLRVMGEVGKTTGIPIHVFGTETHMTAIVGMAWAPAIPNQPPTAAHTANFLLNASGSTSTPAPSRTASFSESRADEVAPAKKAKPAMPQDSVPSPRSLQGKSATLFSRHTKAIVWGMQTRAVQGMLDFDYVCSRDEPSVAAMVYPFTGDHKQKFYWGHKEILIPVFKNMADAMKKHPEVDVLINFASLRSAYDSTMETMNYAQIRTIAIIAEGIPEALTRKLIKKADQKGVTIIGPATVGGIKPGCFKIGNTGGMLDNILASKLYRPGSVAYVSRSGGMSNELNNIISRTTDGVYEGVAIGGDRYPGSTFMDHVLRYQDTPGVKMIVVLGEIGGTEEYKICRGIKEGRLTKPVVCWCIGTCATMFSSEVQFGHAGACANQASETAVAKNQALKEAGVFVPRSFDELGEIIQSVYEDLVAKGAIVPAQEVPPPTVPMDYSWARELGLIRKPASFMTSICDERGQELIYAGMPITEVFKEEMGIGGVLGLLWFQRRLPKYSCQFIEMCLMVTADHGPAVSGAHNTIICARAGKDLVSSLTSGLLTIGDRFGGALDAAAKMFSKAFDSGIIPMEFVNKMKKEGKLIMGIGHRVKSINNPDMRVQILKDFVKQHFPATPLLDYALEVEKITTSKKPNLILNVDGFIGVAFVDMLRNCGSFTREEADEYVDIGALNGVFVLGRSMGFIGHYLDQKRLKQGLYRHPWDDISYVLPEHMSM
# ATP-citrate synthase [2] = target: T2, ATP-citrate synthase (Homo sapiens, UniProt P53396)
# T2 sequence (P53396 whole entry): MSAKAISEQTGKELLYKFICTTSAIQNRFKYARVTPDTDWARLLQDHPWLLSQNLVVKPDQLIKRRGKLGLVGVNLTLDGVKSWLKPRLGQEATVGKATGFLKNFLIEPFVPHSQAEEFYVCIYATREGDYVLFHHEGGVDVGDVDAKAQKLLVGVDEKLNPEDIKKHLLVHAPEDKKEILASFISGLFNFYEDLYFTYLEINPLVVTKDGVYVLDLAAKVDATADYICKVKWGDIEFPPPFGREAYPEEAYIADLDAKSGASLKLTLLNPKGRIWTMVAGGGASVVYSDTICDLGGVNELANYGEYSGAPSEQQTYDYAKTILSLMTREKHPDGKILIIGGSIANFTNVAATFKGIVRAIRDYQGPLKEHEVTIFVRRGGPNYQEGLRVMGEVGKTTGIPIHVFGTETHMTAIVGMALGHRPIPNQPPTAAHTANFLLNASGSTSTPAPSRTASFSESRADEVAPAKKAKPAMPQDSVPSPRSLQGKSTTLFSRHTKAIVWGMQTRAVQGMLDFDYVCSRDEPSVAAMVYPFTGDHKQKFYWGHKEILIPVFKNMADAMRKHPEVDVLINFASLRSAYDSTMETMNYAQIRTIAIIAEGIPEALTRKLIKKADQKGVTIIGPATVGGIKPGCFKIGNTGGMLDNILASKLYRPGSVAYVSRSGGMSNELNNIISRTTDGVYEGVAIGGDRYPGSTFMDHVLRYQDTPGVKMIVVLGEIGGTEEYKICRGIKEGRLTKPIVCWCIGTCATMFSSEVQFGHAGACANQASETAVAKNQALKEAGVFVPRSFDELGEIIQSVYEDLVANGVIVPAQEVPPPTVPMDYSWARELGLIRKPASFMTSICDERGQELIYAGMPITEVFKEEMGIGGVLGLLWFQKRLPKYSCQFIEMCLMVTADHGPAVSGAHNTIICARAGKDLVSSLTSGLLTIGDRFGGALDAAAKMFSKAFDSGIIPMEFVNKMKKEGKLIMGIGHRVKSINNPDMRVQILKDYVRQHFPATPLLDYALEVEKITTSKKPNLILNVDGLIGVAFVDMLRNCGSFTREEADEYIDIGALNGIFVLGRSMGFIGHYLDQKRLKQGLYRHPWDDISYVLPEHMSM
# Description: Competitive inhibition of human liver ACLY using varying levels of citrate as substrate
# Rattus norvegicus [3] = experiment: In vivo inhibition of ACLY in po dosed rat assessed as reduction in plasma triglyceride level after 7 days relative to control; assay type: functional
# Canis familiaris [4] = experiment: In vivo inhibition of ACLY in po dosed dog assessed as reduction in plasma triglyceride level after 15 days relative to control; assay type: functional, Canis lupus familiaris
# Rattus norvegicus [5] = experiment: In vivo inhibition of ACLY in po dosed rat assessed as reduction in plasma cholesterol level after 7 days relative to control; assay type: functional
# Canis familiaris [6] = experiment: In vivo inhibition of ACLY in po dosed dog assessed as reduction in plasma cholesterol level after 15 days relative to control; assay type: functional, Canis lupus familiaris
# ATP-citrate synthase [7] = target: T3, ATP-citrate synthase (Rattus norvegicus, UniProt P16638); experiment: as §1
# T3 sequence (P16638 whole entry): T1 sequence (whole entry)
# ATP-citrate synthase [8] = target: T2, ATP-citrate synthase; experiment: Inhibition of ACLY (unknown origin)
# ATP-citrate synthase [9] = target: T3, ATP-citrate synthase; experiment: Reversible inhibition of rat liver ACLY
# Rattus norvegicus [10] = experiment: In vivo inhibition of ACLY in rat administered through diet relative to control; assay type: functional
# PC-3 = experiment: Antiproliferative activity against human PC3 cells; assay type: functional, cell-based
# LNCaP = experiment: Antiproliferative activity against human LNCAP cells; assay type: functional, cell-based
# A549 = experiment: Antiproliferative activity against human A549 cells; assay type: functional, cell-based
# SK-OV-3 = experiment: Antiproliferative activity against human SKOV3 cells; assay type: functional, cell-based
# [11] = target: T4, ATP-citrate synthase (Homo sapiens) (UniProt P53396); experiment: Inhibition of ACLY in human HepG2 cells assessed as reduction in fatty acid synthesis at 30 uM relative to control; assay type: cell-based
# T4 sequence (whole entry): T2 sequence (P53396 whole entry)
# [12] = target: T4, ATP-citrate synthase (Homo sapiens); experiment: Inhibition of ACLY in human HepG2 cells assessed as reduction in cholesterol synthesis at 30 uM relative to control; assay type: cell-based
smiles,measurement,setting,value
CC(=O)C(C)=O,inhibition,[1],35%
O=C(O)C[C@@](O)(C(=O)O)[C@H](O)C(=O)O,Ki,ATP-citrate synthase [2],300 µM
O=C(O)C[C@@](O)(C[C@H](O)CCCCCCc1ccc(Cl)cc1Cl)C(=O)O,inhibition (INH),Rattus norvegicus [3],<=80%
same,inhibition (INH),Canis familiaris [4],<=38%
same,inhibition (INH),Rattus norvegicus [5],<=46%
same,inhibition (INH),Canis familiaris [6],<=23%
CCCCCC[C@H]1C(=O)O[C@H](C)[C@H](NC(=O)c2cccc(NC=O)c2O)C(=O)O[C@@H](C)[C@@H]1OC(=O)C(C)C,Ki,ATP-citrate synthase [7],4 µM
CC(C)CC[C@H]1C(=O)O[C@H](C)[C@H](NC(=O)c2cccc(NC=O)c2O)C(=O)O[C@@H](C)[C@@H]1OC(=O)CC(C)C,Ki,ATP-citrate synthase [7],4 µM
O=C1C[C@@](O)(C(=O)O)[C@@H](C(=O)O)O1,Ki,ATP-citrate synthase [7],50 to 100 µM
O=CC(=O)c1ccccc1,inhibition,[1],85%
CCC(C)C(=O)O[C@H]1[C@H](C)OC(=O)[C@@H](NC(=O)c2cccc(NC=O)c2O)[C@@H](C)OC(=O)[C@@H]1CCC(C)C (stereo not given in full),Ki,ATP-citrate synthase [7],4 µM
O=C1C(c2ccc(O)c(O)c2)=c2c(c3c(n2CCc2ccc(O)cc2)=C(c2ccc(O)c(O)c2)C(=O)c2cc(O)c(O)cc2-3)-c2cc(O)c(O)cc21 [PURPURONE],IC50,ATP-citrate synthase [8],7 µM
CS(=N)(=O)C[C@@](O)(CC(=O)O)C(=O)O (stereo not given in full),Ki,ATP-citrate synthase [9],250 µM
CC1=CC(O)=C2C(=O)c3c(ccc(-c4ccc5c(c4O)C(=O)C4=C(O)C6OC6(C)C(OC(=O)CC(=O)O)C4(C)O5)c3O)OC2(C)C1=O (stereo not given),IC50,ATP-citrate synthase [7],6.19 µM
CC12Oc3ccc(-c4ccc5c(c4O)C(=O)C4=C(O)C6OC6(C)C(OC(=O)CC(=O)O)C4(C)O5)c(O)c3C(=O)C1=C(O)C1OC1(C)C2O (stereo not given),IC50,ATP-citrate synthase [7],9.63 µM
CCCCCC[C@H]1C(=O)O[C@H](C)[C@H](NC(=O)c2cccc(NC=O)c2O)C(=O)O[C@@H](C)[C@@H]1OC(=O)CCC,Ki,ATP-citrate synthase [7],4 µM
Clc1cccc(-c2ccc(Cl)c(Cl)c2Cl)c1Cl,inhibition (INH),Rattus norvegicus [10],69%
N[C@@H](CCC(=O)O)C(=O)O [GLUTAMIC ACID],Ki,ATP-citrate synthase [7],300 µM
CC(=O)OC(C)(C)/C=C/C(=O)[C@](C)(O)[C@H]1[C@H](O)C[C@@]2(C)[C@@H]3CC=C4[C@@H](C[C@H](O)C(=O)C4(C)C)[C@]3(C)C(=O)C[C@]12C,IC50,PC-3,0.1 µM
same,IC50,LNCaP,0.1 µM
O=C(O)C[C@@]1(O)C[C@@H](CCCCCCc2ccc(Cl)cc2Cl)OC1=O,IC50,PC-3,26 µM
same,IC50,A549,24 µM
same,IC50,SK-OV-3,53 µM
same,inhibition,[11],82%
same,inhibition,[12],91%
